{"source": "paper PMC8581430", "about": "“Peptide ligands targeting FGF receptors promote recovery from dorsal root crush injury via AKT/mTOR signaling” (Theranostics, 2021)", "tested_on": "mTOR (phosphorylated) in DRG explants", "assay": "Western blot of phosphorylated mTOR in DRG explants", "assay_type": "cell-based, rat", "conditions": "CH02 20 μM + inhibitor 2 μM, 4 h, n = 3", "method": "Figure 7 CH02-stimulated activation of AKT/mTOR signaling is required for growth potential augmentation of axons. (A) Immunoblot analysis showing phosphorylated mTOR expression in C5-T1 DRGs subjected to dorsal root injury followed by CH02 treatment (20 μM). DRG samples were collected 3 days post-treatment. (B) Quantification of p-mTOR expression levels in A. n = 3 independent experiments. Relative protein expression levels were quantified after normalization to mTOR. Values are means ± SEM. (C) Immunoblot showing phosphorylated mTOR expression in DRG explants pretreated with DMSO (control), CH02 (20 μM), CH02+AKTi (2 μM) or CH02+ U0126 (2 μM) for 4 h. (D) Quantification of the p-mTOR expression from C. n = 3 independent experiments. Relative protein expression levels were quantified after normalization to mTOR. […] The axon is shown in fluorescence (β3-tubulin) images. […] (F) Quantification of the longest axon length of each neuron from (E) (n = 62 for each condition; *Control vs. CH02, CH02+Torin1, Torin1; # CH02 vs. CH02+Torin1; **p < 0.01, ****p < 0.0001, #p < 0.05 by one-way ANOVA with Dunnett's test; ns, not significant; mean ± SD). […] (H) Quantification of axon growth in DRG explants from (G) using Neurite-J software (n = 4 for each condition; *control vs. CH02, CH02+Torin1, Torin1; *p < 0.05, **p < 0.01, ***p < 0.001, ****p < 0.0001 by two-way ANOVA with Dunnett's test; mean ± SEM). […]"}
{"smiles": "N#CC(=C(/N)Sc1ccccc1N)/C(C#N)=C(/N)Sc1ccccc1N", "note": "[U0126]", "values": [{"measurement": "effect of inhibitor on CH02-induced phosphorylated mTOR", "value": "had little effect"}]}
